test system: MIA PaCa-2 cells; assay: MIA PaCa2 cell-based assay (1,536-well high-content imaging ALDEFLUOR assay); design: species or system human; conditions: Homo sapiens, 0.5 h, ALDEFLUOR BAAA substrate 500 nM, 30 minutes
Experimental: Example 359. MIA PaCa2 Cell-Based Assay (In Vitro Assay)
1,536-Well High-Content Imaging ALDEFLUOR Assay
The ALDEFLUOR™ kit was purchased from […] Technologies (Vancouver, Canada; #01700). MIA PaCa-2 cells (5 μL; 1,000 cells/well) were dispensed into black, optical quality (cyclic olefin copolymer) clear bottom, medium binding TC treated 1,536-well plates (Aurora Microplates, Whitefish Mont.) using a Multidrop Combi dispenser (ThermoFisher) and incubated overnight (37° C., 5% CO2, 85% RH). Media (RPMI 1640 (Life Technologies, Carlsbad, Calif.), supplemented with 2 mM L-Glutamine (Life Technologies), 10% HyClone™ fetal bovine serum (FBS, GE Healthcare, Piscataway, N.J.) and 100 U/mL penicillin and 100 μg/mL streptomycin (Life Technologies)) was subsequently removed by centrifuging plates upside down using a plate adaptor to collect media. A solution of BAAA substrate ([…] Technologies) and Hoechst 33342 (ThermoFisher, final concentrations of 500 nM and 0.5 nM, respectively) in ALDEFLUOR™ buffer ([…] Technologies #01700) was dispensed onto cells using a Multidrop Combi followed by immediate transfer (23 nL) of compound or control solutions using a Wako Pin-tool (final percentage of DMSO in the cell plates was 0.5%). Unless otherwise noted, all compounds were assayed as 16-point dilutions spanning a final concentration range of 1.4 nM to 47.8 μM. The neutral and positive assay controls were DMSO and DEAB (4.6 μM), respectively. Cells were incubated for 30 minutes or the indicated amount of time at 37° C., 5% CO2, 85% RH to allow the conversion of BAAA into BAA. Supernatant was subsequently removed by centrifugation as described above, then ALDEFLUOR™ buffer (3 μl) was dispensed by Multidrop Combi before imaging on an IN Cell 2200 (GE Healthcare).
The above assay was modified for an online robotic screening system. After cell plating and overnight incubation, 4 μL of media were removed using a 64-tip metal aspirator head on a Wako aspirator station, leaving 1 μL remaining in the well, followed by a 4 μL dispense of BAAA and Hoechst 33342 in ALDEFLUOR™ buffer, for a final concentration of 500 nM and 0.5 nM, respectively Immediately following the dispense, 23 nL of compound or control solutions were transferred using a Wako Pin-tool. Cells were incubated for 30 minutes at 37° C., 5% CO2, 85% RH, followed by a 4 μL media removal using the Wako aspirator, and a subsequent 3 μL addition of ALDEFLUOR™ buffer. Plates were then immediately read on the IN Cell 2200 as described below.
Image Acquisition and Analysis
For images captured on the IN Cell 2200 widefield automated microscope, a 10×0.45 NA Plan Apo objective lens was used to capture the entire well of the 1,536-well plate using standard DAPI (390/18×, 432/48 m) and FITC (475/28×, 525/48 m) filter sets at 50 msec and 100 msec exposures, respectively. Images were subsequently analyzed using IN Cell Investigator v1.6.2 analysis software's canned Multi-Target Analysis algorithm (GE Healthcare). Hoechst stained nuclei were identified using top hat segmentation with a minimum area of 75 μm^2 and sensitivity of 93. BAA-retaining cells captured via FITC channel, were identified using multiscale top hat segmentation with a minimum area of 100 μm^2 and a sensitivity setting of 16. […] Data were plotted using GraphPad Prism software (GraphPad, San Diego, Calif.).

Compound | IC50 [nM]
O=C(c1cnc2c(F)cc(F)cc2c1N1CCC2(CC1)OCCO2)N1CCN(C(=O)C2CC2)CC1 [Example 78, (4-(cyclopropanecarbonyl)piperazin-1-yl)(6,8-difluoro-4-(1,4-dioxa-8-azaspiro[4.5]decan-8-yl)quinolin-3-yl)methanone] | 1000 to 10000
CCC(=O)N1CCN(C(=O)c2cnc3ccc(F)cc3c2N2CCC(C)(C#N)CC2)CC1 [Example 91, 1-(6-fluoro-3-(4-propionylpiperazine-1-carbonyl)quinolin-4-yl)-4-methylpiperidine-4-carbonitrile] | 1000 to 10000
CS(=O)(=O)N1CCN(c2c(C(=O)N3CCN(C(=O)C4CC4)CC3)cnc3ccc(F)cc23)CC1 [Cpd. 303, (4-(cyclopropanecarbonyl)piperazin-1-yl)(6-fluoro-4-(4-(methylsulfonyl)piperazin-1-yl)quinolin-3-yl)methanone] | 1000 to 10000
Cc1ccc2ncc(C(=O)N3CCN(C(=O)C4CC4)CC3)c(N3CCC4(CC3)OCCO4)c2c1 [Example 30, (4-(cyclopropanecarbonyl)piperazin-1-yl)(6-methyl-4-(1,4-dioxa-8-azaspiro[4.5]decan-8-yl)quinolin-3-yl)methanone] | 1000 to 10000
CS(=O)(=O)N1CCN(C(=O)c2cnc3ccc(F)cc3c2N2CCC(C#N)CC2)CC1 [Cpd. 305, 1-(6-fluoro-3-(4-(methylsulfonyl)piperazine-1-carbonyl)quinolin-4-yl)piperidine-4-carbonitrile] | > 10000
CC1(C#N)CCN(c2c(C(=O)N3CCN(S(=O)(=O)C4CC4)CC3)cnc3ccc(F)cc23)CC1 [Example 85, 1-(3-(4-(cyclopropylsulfonyl)piperazine-1-carbonyl)-6-fluoroquinolin-4-yl)-4-methylpiperidine-4-carbonitrile] | > 10000
O=C(c1cnc2ccc(F)cc2c1N1CCC2(CC1)CC2)N1CCN(C(=O)C2CC2)CC1 [Example 59, (4-(cyclopropanecarbonyl)piperazin-1-yl)(6-fluoro-4-(6-azaspiro[2.5]octan-6-yl)quinolin-3-yl)methanone] | > 10000
O=C(c1cnc2ccc(F)cc2c1N1C[C@H]2CCCC[C@H]2C1)N1CCN(C(=O)C2CC2)CC1 [Example 83, (4-(cyclopropanecarbonyl)piperazin-1-yl)(6-fluoro-4-((3aR*,7aS*)-hexahydro-1H-isoindol-2(3H)-yl)quinolin-3-yl)methanone] | > 10000
CS(=O)(=O)N1CCN(C(=O)c2cnc3ccc(F)cc3c2N2CCC3(CC2)CC(=O)c2ccccc23)CC1 [Example 199, 1′-(6-fluoro-3-(4-(methylsulfonyl)piperazine-1-carbonyl)quinolin-4-yl)spiro[indene-1,4′-piperidin]-3(2H)-one] | 1000 to 10000
O=C(c1cnc2ccc(F)cc2c1N1CCC2(CCCCC2)CC1)N1CCN(C(=O)C2CC2)CC1 [Example 75, (4-(cyclopropanecarbonyl)piperazin-1-yl)(6-fluoro-4-(3-azaspiro[5.5]undecan-3-yl)quinolin-3-yl)methanone] | 1000 to 10000
CC1(C#N)CCN(c2c(C(=O)N3CCN(S(C)(=O)=O)CC3)cnc3[nH]ccc23)CC1 [Example 236, 4-methyl-1-(5-(4-(methylsulfonyl)piperazine-1-carbonyl)-1H-pyrrolo[2,3-b]pyridin-4-yl)piperidine-4-carbonitrile] | 1000 to 10000
O=C(c1cnc2ccc(F)cc2c1N1CC2(CCCCC2)C1)N1CCN(C(=O)C2CC2)CC1 [Example 80, (4-(cyclopropanecarbonyl)piperazin-1-yl)(6-fluoro-4-(2-azaspiro[3.5]nonan-2-yl)quinolin-3-yl)methanone] | > 10000
CC1(C)CCN(c2c(C(=O)N3CCN(C(=O)C4CC4)CC3)cnc3ccc(F)cc23)CC1 [Example 65, (4-(cyclopropanecarbonyl)piperazin-1-yl)(4-(4,4-dimethylpiperidin-1-yl)-6-fluoroquinolin-3-yl)methanone] | 1000 to 10000
O=C(c1cnc2ccc(F)cc2c1N1CCCCCC1)N1CCN(C(=O)C2CC2)CC1 [Example 71, (4-(azepan-1-yl)-6-fluoroquinolin-3-yl)(4-(cyclopropanecarbonyl)piperazin-1-yl)methanone] | 1000 to 10000
O=C(c1cnc2ccc(F)cc2c1N1CC2CCC(C2)C1)N1CCN(C(=O)C2CC2)CC1 [Example 82, (4-(3-azabicyclo[3.2.1]octan-3-yl)-6-fluoroquinolin-3-yl)(4-(cyclopropanecarbonyl)piperazin-1-yl)methanone] | > 10000
CC(C)C(=O)N1CCN(C(=O)c2cnc3ccc(F)cc3c2N2CCC(C)(C#N)CC2)CC1 [Example 92, 1-(6-fluoro-3-(4-isobutyrylpiperazine-1-carbonyl)quinolin-4-yl)-4-methylpiperidine-4-carbonitrile] | 1000 to 10000
C[C@@H]1CN(C(=O)c2cnc3ccc(F)cc3c2N2CCC(C)(C#N)CC2)CCN1S(C)(=O)=O [Example 223, (R)-1-(6-fluoro-3-(3-methyl-4-(methylsulfonyl)piperazine-1-carbonyl)quinolin-4-yl)-4-methylpiperidine-4-carbonitrile] | 1000 to 10000

Now those with a lower IC50, led by results:

IC50 [nM] | Compound
< 500 | CC1(C)CC=C(c2c(C(=O)N3CCN(C(=O)C4CC4)CC3)cnc3ccc(F)cc23)CC1 [Example 77, (4-(cyclopropanecarbonyl)piperazin-1-yl)(4-(4,4-dimethylcyclohex-1-en-1-yl)-6-fluoroquinolin-3-yl)methanone]
< 500 | CS(=O)(=O)N1CCN(C(=O)c2cnc3ccc(F)cc3c2-c2ccc(C3(C#N)CC3)cc2)CC1 [Example 210, 1-(4-(6-fluoro-3-(4-(methylsulfonyl)piperazine-1-carbonyl)quinolin-4-yl)phenyl)cyclopropanecarbonitrile]
< 500 | CS(=O)(=O)N1CCN(C(=O)c2cnc3ccc(F)cc3c2N2CCC(C#N)(c3ccccc3F)CC2)CC1 [Example 274, 1-(6-fluoro-3-(4-(methylsulfonyl)piperazine-1-carbonyl)quinolin-4-yl)-4-(2-fluorophenyl)piperidine-4-carbonitrile]
< 500 | COc1ccc2ncc(C(=O)N3CCN(S(C)(=O)=O)CC3)c(-c3ccc(C4(C#N)CC4)cc3)c2c1 [Cpd. 321, 1-(4-(6-methoxy-3-(4-(methylsulfonyl)piperazine-1-carbonyl)quinolin-4-yl)phenyl)cyclopropane-1-carbonitrile]
< 500 | CN(C)C(=O)N1CCN(C(=O)c2cnc3ccc(F)cc3c2-c2ccc(C3(C#N)CC3)cc2)CC1 [Example 265, 4-(4-(4-(1-cyanocyclopropyl)phenyl)-6-fluoroquinoline-3-carbonyl)-N,N-dimethylpiperazine-1-carboxamide]
< 500 | N#CC1(c2ccccc2)CCN(c2c(C(=O)Nc3cnn(CC(N)=O)c3)cnc3ccc(F)cc23)CC1 [Cpd. 352, N-(1-(2-amino-2-oxoethyl)-1H-pyrazol-4-yl)-4-(4-cyano-4-phenylpiperidin-1-yl)-6-fluoroquinoline-3-carboxamide]
< 500 | CC(C)(C)c1ccc(-c2c(C(=O)N3CCN(C(=O)C4CC4)CC3)cnc3ccc(F)cc23)cc1 [Example 84, (4-(4-(tert-butyl)phenyl)-6-fluoroquinolin-3-yl)(4-(cyclopropanecarbonyl)piperazin-1-yl)methanone]
< 500 | CCC1(C#N)CCN(c2c(C(=O)N3CCN(S(C)(=O)=O)CC3)cnc3ccc(F)cc23)CC1 [Example 197, 4-ethyl-1-(6-fluoro-3-(4-(methylsulfonyl)piperazine-1-carbonyl)quinolin-4-yl)piperidine-4-carbonitrile]
< 500 | N#CC1(c2ccccc2)CCN(c2c(C(=O)N3CCN(C(=O)C4CC4)CC3)cnc3ccsc23)CC1 [Example 282, 1-(6-(4-(cyclopropanecarbonyl)piperazine-1-carbonyl)thieno[3,2-b]pyridin-7-yl)-4-phenylpiperidine-4-carbonitrile]

Source: patent US11795177B2, “Substituted quinoline analogs as aldehyde dehydrogenase 1A1 (ALDH1A1) inhibitors” (THE UNITED STATES OF AMERICA, AS REPRESENTED BY THE …, priority 2017, dated 2023)
